Measured values published in publication PMC5362455, “Molecularly targeted co-delivery of a histone deacetylase inhibitor and paclitaxel by lipid-protein hybrid nanoparticles for synergistic combinational chemotherapy” (Oncotarget, 2017).

Columns and labels:
[1] = test system: HepG2 xenograft tumor masses; experiment: Histomorphometric and immunohistochemical analysis of tumor masses; type: in vivo, BALB/c nude mice; conditions: for Tumor cell volumes: H&E, six histological fields; for Immunolabeled cell percentages: CD31 (PECAM-1) / Immunolabeled cell percentages: Caspase-3 / Immunolabeled cell percentages: Ki-67 / Immunolabeled cell percentages: PARP: tumor mass; for Caspase-3-immunolabeled cells: tumor of treated mice
Method: Xenografted tumor masses were cut and fixed in 10% neutral buffered formalin, embedded in paraffin, serially sectioned (3–4 μm), and stained with H&E prior to histopathological examinations under a light microscope (Nikon, Tokyo, Japan). The tumor cell volumes and intact tumor cell-occupied regions (%/mm^2 of tumor mass) were calculated using a computer-based automated image analyzer (iSolution FL ver 9.1, IMT i-solution Inc., Quebec, Canada).
The apoptotic markers, caspase-3, PARP, CD31, and Ki67 were investigated immunohistochemically using purified primary antibodies and biotinylated secondary antibodies, with avidin-biotin-peroxidase complex (ABC) and a peroxidase substrate kit (Vector Labs, Burlingame, CA, USA). Briefly, endogenous peroxidase activity was blocked with methanol and 0.3% H2O2 for 30 min, and non-specific immunoglobulin binding was blocked with normal horse serum blocking solution in 10 mM citrate buffer (pH 6.0). Tissue sections were incubated with primary antisera overnight at 4°C in a humidity chamber, and then incubated with biotinylated universal secondary antibodies and ABC reagents for 1 h at room temperature. Finally, sections were reacted with the peroxidase substrate kit for 3 min at room temperature. Cells were counted as immunopositive if they had > 20% immunoreactivity to the apoptotic marker (caspase-3 or PARP). The percentage region occupied by caspase-3- and PARP-positive cells within the tumor mass (%/mm^2 of tumor mass) was measured by an automated image analyzer.

[2] = test system: HepG2 tumor-bearing xenograft mice; experiment: In vivo antitumor study; parameters: species or system BALB/c nude mice; conditions: 5 mg/kg i.v., days 1, 4, 7, 10
Method: HepG2 cell-bearing xenograft mice models were developed by subcutaneously injecting 1 × 10^7 cells/100 μl into the rear flanks of 5-week-old male BALB/c nude mice (Orient Ltd. Osan, South Korea). After two weeks of initial implantation, animals were randomly divided into six groups (n = 6 per group). Respective formulations were injected at a dose of 100 μg/100 μL in 750 μg carrier by tail vein four times every 3 days. Tumors were measured twice weekly using a digital caliper and the tumor volume (V) was calculated as, V = ((width)^2 x length)/2. The animals were sacrificed after four weeks of treatment and the primary tumor was excised, weighed, and subjected to further analysis.

[3] = test system: red blood cells (RBC); experiment: Hemolytic analysis; conditions: male, Sprague-Dawley, rat
Method: The experimental protocol was approved by
the Institutional Animal Ethical Committee, Yeungnam
Briefly, the rat femoral artery
was cannulated and whole blood samples were withdrawn.
centrifugation at 3500 rpm for 10 min. The degree of
Hemolytic analysis hemolysis was determined by measuring the absorbance
of the supernatant at 540 nm.
Hemolytic toxicity was determined in a male
Sprague-Dawley rat after treatment with different

| Structure (SMILES) | Tumor cell volumes [1] | Immunolabeled cell percentages: CD31 (PECAM-1) [1] | Immunolabeled cell percentages: Caspase-3 [1] | Immunolabeled cell percentages: Ki-67 [1] | Immunolabeled cell percentages: PARP [1] | Caspase-3-immunolabeled cells [1] [%] | Tumor growth (in words) [2] | hemolysis at 30 min, 100 µg/mL [3] [%] | hemolysis at 30 min, 100 µg/mL ([3]; isolated red blood cells (RBC) suspension) [%] |
| --- | --- | --- | --- | --- | --- | --- | --- | --- | --- |
| CC(=O)O[C@H]1C(=O)[C@@]2(C)[C@H]([C@H](OC(=O)c3ccccc3)[C@]3(O)C[C@H](OC(=O)[C@H](O)[C@@H](NC(=O)c4ccccc4)c4ccccc4)C(C)=C1C3(C)C)[C@]1(OC(C)=O)CO[C@@H]1C[C@@H]2O [PTX, Paclitaxel] | 53.84 ± 3.18 %/mm2 of tumor mass | 30.54 ± 4.09 %/mm2 of tumor mass | 30.34 ± 5.00 %/mm2 of tumor mass | 44.90 ± 5.31 %/mm2 of tumor mass | 29.59 ± 3.04 %/mm2 of tumor mass | 30.34 | slightly inhibited tumor growth | ~25 |  |
| O=C(CCCCCCC(=O)Nc1ccccc1)NO [VOR, Vorinostat] | 60.51 ± 10.92 %/mm2 of tumor mass | 29.70 ± 2.52 %/mm2 of tumor mass | 26.31 ± 7.48 %/mm2 of tumor mass | 42.64 ± 4.65 %/mm2 of tumor mass | 27.64 ± 3.22 %/mm2 of tumor mass | 26.31 | slightly inhibited tumor growth |  | ~40 |
